Experimental data reported in patent US20070185095A1, “Fused heterocyclic compounds and their use as metabotropic glutamate receptor antagonists” (AstraZeneca AB, priority 2004, published 2007).
pIC50: −log10 of the molar value.

Molecular target: T1, human mGluR5d (Homo sapiens, UniProt P41594)
T1 construct: expressed in transfected cells
Experiment: FLIPR assay of [Ca2+]i mobilization in cells expressing human mGluR5d (Group I receptor antagonist activity)
Type: cell-based
Conditions: antagonist block of agonist challenge
Excerpt: The pharmacological properties of the compounds of the invention can be analyzed using standard assays for functional activity. Examples of glutamate receptor assays are well known in the art as described in for example Aramori et al., Neuron 8:757 (1992), Tanabe et al., Neuron 8:169 (1992), Miller et al., J. Neuroscience 15: 6103 (1995), Balazs, et al., J. Neurochemistry 69:151 (1997). The methodology described in these publications is incorporated herein by reference. Conveniently, the compounds of the invention can be studied by means of an assay that measures the mobilization of intracellular calcium, [Ca^2+]i in cells expressing mGluR5. […]
FLIPR experiments were done using a laser setting of 0.800 W and a 0.4 second CCD camera shutter speed. […] After each addition of the compound, the fluorescence signal was sampled 50 times at 1 second intervals followed by 3 samples at 5 second intervals. Responses were measured as the peak height of the response within the sample period. […]
For FLIPR analysis, cells expressing human mGluR5d as described in WO97/05252 were seeded on collagen coated clear bottom 96-well plates with black sides and analysis of [Ca^2+]i mobilization was performed 24 h following seeding. […] After each addition the fluorescence signal was sampled 50 times at 1 second intervals followed by 3 samples at 5 second intervals. […]

T1 sequence (P41594 21-942 isoform P41594-3 limits assumed): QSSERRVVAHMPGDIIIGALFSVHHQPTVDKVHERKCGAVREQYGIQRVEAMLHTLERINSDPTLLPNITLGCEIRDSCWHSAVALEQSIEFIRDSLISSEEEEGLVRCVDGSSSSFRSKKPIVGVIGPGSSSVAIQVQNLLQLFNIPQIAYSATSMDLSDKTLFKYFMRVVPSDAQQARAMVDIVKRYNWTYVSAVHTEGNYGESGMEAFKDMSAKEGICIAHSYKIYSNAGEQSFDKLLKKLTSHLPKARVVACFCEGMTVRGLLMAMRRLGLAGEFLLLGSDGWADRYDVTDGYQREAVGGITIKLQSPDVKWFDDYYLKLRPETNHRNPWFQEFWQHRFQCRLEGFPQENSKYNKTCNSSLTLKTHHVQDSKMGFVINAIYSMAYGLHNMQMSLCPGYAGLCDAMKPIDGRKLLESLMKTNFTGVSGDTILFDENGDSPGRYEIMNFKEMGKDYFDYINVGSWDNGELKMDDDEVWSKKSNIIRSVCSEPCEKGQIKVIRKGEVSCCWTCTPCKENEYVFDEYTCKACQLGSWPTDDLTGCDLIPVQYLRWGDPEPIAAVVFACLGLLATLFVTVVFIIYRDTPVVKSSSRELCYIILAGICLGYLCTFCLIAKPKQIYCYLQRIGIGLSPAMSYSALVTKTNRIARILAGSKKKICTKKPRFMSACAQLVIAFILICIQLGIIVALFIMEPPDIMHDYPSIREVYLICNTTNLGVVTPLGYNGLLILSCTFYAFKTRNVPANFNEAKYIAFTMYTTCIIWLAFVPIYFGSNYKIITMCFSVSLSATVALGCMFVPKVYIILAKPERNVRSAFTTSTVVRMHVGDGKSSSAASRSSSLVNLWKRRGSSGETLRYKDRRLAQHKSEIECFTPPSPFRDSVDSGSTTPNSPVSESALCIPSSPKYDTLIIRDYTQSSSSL

Row | pIC50 | Compound
1 | 7.31 | Clc1cccc(-c2nc(CC3CCn4c(-c5ccncc5)nnc43)no2)c1 (centres unmarked) [7-{[5-(3-chlorophenyl)-1,2,4-oxadiazol-3-yl]methyl}-3-pyridin-4-yl-6,7-dihydro-5H-pyrrolo[2,1-c][1,2,4]triazole]
2 | 7.09 | CC(c1noc(-c2cccc(Cl)c2)n1)N1CCCCn2c(-c3ccncc3)nnc21 (centres unmarked) [9-{1-[5-(3-chlorophenyl)-1,2,4-oxadiazol-3-yl]ethyl}-3-pyridin-4-yl-6,7,8,9-tetrahydro-5H-[1,2,4]triazolo[4,3-a][1,3]diazepine]
